In US7592345B2, “Piperazine and [1,4]diazepan derivatives as NK antagonists” (Hoffmann-La Roche Inc., priority 2007, dated 2009):

molecular target: T1, recombinant human NK3 receptor (Homo sapiens, UniProt P29371); experiment: [3H]SR142801 competition binding assay; settings: [3H]SR142801, membranes from HEK293 cells transiently expressing recombinant human NK3 receptor; read-out: hNK3 Ki
T1 construct: expressed in transfected cells; host or cells: HEK293 cells (transient expression), membranes
T1 sequence (P29371 1-465): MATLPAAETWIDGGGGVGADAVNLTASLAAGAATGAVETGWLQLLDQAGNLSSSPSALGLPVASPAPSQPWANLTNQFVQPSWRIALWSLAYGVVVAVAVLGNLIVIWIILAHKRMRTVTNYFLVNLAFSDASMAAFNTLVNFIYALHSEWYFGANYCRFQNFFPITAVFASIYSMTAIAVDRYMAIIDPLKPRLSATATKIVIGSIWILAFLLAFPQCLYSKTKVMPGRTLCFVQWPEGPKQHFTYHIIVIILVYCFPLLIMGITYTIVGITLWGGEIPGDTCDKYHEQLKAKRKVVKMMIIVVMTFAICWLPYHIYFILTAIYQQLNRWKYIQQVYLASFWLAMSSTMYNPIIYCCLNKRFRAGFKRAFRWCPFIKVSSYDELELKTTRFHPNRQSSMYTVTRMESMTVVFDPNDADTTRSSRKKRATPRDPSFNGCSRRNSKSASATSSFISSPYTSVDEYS
Description: [^3H]SR142801 Competition Binding Assay
hNK3 receptor binding experiment were performed using [^3H]SR142801 (Catalog No. TRK1035, specific activity: 74.0 Ci/mmol, Amersham, GE Healthcare UK limited, Buckinghamshire, UK) and membrane isolated from HEK293 cells transiently expressing recombinant human NK3 receptor. After thawing, the membrane homogenates were centrifuged at 48,000×g for 10 min at 4° C., the pellets were resuspended in the 50 mM Tris-HCl, 4 mM MnCl2, 1 μM phosphoramidon, 0.1% BSA binding buffer at pH 7.4 to a final assay concentration of 5 μg protein/well. For inhibition experiments, membranes were incubated with [^3H]SR142801 at a concentration equal to KD value of radioligand and 10 concentrations of the inhibitory compound (0.0003-10 μM) (in a total reaction volume of 500 μl) for 75 min at room temperature (RT). At the end of the incubation, membranes were filtered onto unitfilter (96-well white microplate with bonded GF/C filter preincubated 1 h in 0.3% PEI+0.3% BSA, Packard BioScience, Meriden, Conn.) with a Filtermate 196 harvester (Packard BioScience) and washed 4 times with ice-cold 50 mM Tris-HCl, pH 7.4 buffer. Nonspecific binding was measured in the presence of 10 μM SB222200 for both radioligands. The radioactivity on the filter was counted (5 min) on a Packard Top-count microplate scintillation counter with quenching correction after addition of 45 μl of microscint 40 (Canberra Packard S. A., Zürich, Switzerland) and shaking for 1 h. Inhibition curves were fitted according to the Hill equation: y=100/(1+(x/IC50)^nH), where nH=slope factor using Excel-fit 4 software (Microsoft). IC50 values were derived from the inhibition curve and the affinity constant (Ki) values were calculated using the Cheng-Prussoff equation Ki=IC50/(1+[L]/KD) where [L] is the concentration of radioligand and KD is its dissociation constant at the receptor, derived from the saturation isotherm. All experiments were performed in duplicate and the mean±standard error (SEM) of the individual Ki values was calculated.

| Compound | Ki [nM] |
| --- | --- |
| CC(CCN1CCN(S(C)(=O)=O)CC1)(C(=O)NCc1ccc(C(F)(F)F)cc1)c1ccc(Cl)c(Cl)c1 (stereo not drawn) [Example 27, 2-(3,4-Dichloro-phenyl)-4-(4-methanesulfonyl-piperazin-1-yl)-2-methyl-N-(4-trifluoromethyl-benzyl)-butyramide] | 82 |
| CN(Cc1cccc(F)c1)C(=O)C(C)(CCN1CCN(S(C)(=O)=O)CC1)c1ccc(Cl)c(Cl)c1 (stereo not drawn) [Example 24, 2-(3,4-Dichloro-phenyl)-N-(3-fluoro-benzyl)-4-(4-methanesulfonyl-piperazin-1-yl)-2,N-dimethyl-butyramide] | 224 |
| CN(Cc1ccc(Cl)cc1)C(=O)C(CCN1CCN(S(C)(=O)=O)CC1)c1ccc(Cl)c(Cl)c1 (stereo not drawn) [Example 1, N-(4-Chloro-benzyl)-2-(3,4-dichloro-phenyl)-4-(4-methanesulfonyl-piperazin-1-yl)-N-methyl-butyramide] | 171 |
| CN(Cc1ccccc1Cl)C(=O)C(C)(CCN1CCN(S(C)(=O)=O)CC1)c1ccc(Cl)c(Cl)c1 (stereo not drawn) [Example 16, N-(2-Chloro-benzyl)-2-(3,4-dichloro-phenyl)-4-(4-methanesulfonyl-piperazin-1-yl)-2,N-dimethyl-butyramide] | 169 |
| COc1ccc(CN(C)C(=O)C(C)(CCN2CCN(S(C)(=O)=O)CC2)c2ccc(Cl)c(Cl)c2)cc1F (stereo not drawn) [Example 25, 2-(3,4-Dichloro-phenyl)-N-(3-fluoro-4-methoxy-benzyl)-4-(4-methanesulfonyl-piperazin-1-yl)-2,N-dimethyl-butyramide] | 134 |
| C[C@H]1CN(CCC(C)(C(=O)NCc2ccc(N(C)C)cc2)c2ccc(Cl)c(Cl)c2)CCN1S(C)(=O)=O (stereo partly drawn) [Example 68, 2-(3,4-Dichloro-phenyl)-N-(4-dimethylamino-benzyl)-4-((S)-4-methanesulfonyl-3-methyl-piperazin-1-yl)-2-methyl-butyramide] | 734 |
| COc1ccc(CN(C)C(=O)C(C)(CCN2CCN(S(C)(=O)=O)[C@H](C)C2)c2ccc(Cl)c(Cl)c2)cc1F (stereo partly drawn) [Example 31, 2-(3,4-Dichloro-phenyl)-N-(3-fluoro-4-methoxy-benzyl)-4-((R)-4-methanesulfonyl-3-methyl-piperazin-1-yl)-2,N-dimethyl-butyramide] | 109 |
| CC(CCN1CCN(S(C)(=O)=O)CC1)(C(=O)NCc1ccc(C(F)(F)F)c(F)c1)c1ccc(Cl)c(Cl)c1 (stereo not drawn) [Example 20, 2-(3,4-Dichloro-phenyl)-N-(3-fluoro-4-trifluoromethyl-benzyl)-4-(4-methanesulfonyl-piperazin-1-yl)-2-methyl-butyramide] | 67.1 |
| C[C@@H]1CN(CCC(C)(C(=O)N(C)Cc2ccc(Cl)cc2)c2ccc(Cl)c(Cl)c2)CCN1S(C)(=O)=O (stereo partly drawn) [Example 56, N-(4-Chloro-benzyl)-2-(3,4-dichloro-phenyl)-4-((R)-4-methanesulfonyl-3-methyl-piperazin-1-yl)-2,N-dimethyl-butyramide] | 26.5 |
| C[C@H]1CN(CC[C@@](C)(C(=O)NCc2ccc(Cl)c(Cl)c2)c2ccc(Cl)c(Cl)c2)CCN1S(C)(=O)=O (single isomer, unassigned) [Example 94, (R or S)—N-(3,4-Dichloro-benzyl)-2-(3,4-dichloro-phenyl)-4-((R)-4-methanesulfonyl-3-methyl-piperazin-1-yl)-2-methyl-butyramide] | 112 |
| CC(CCN1CCN(S(C)(=O)=O)CC1)(C(=O)NCc1cccc(OC(F)F)c1)c1ccc(Cl)c(Cl)c1 (stereo not drawn) [Example 11, 2-(3,4-Dichloro-phenyl)-N-(3-difluoromethoxy-benzyl)-4-(4-methanesulfonyl-piperazin-1-yl)-2-methyl-butyramide] | 417 |
| CC(CCN1CCN(S(C)(=O)=O)CC1)(C(=O)N[C@H](CO)c1ccc(F)cc1)c1ccc(Cl)c(Cl)c1 (stereo partly drawn) [Example 133, 2-(3,4-Dichloro-phenyl)-N-[(S)-1-(4-fluoro-phenyl)-2-hydroxy-ethyl]-4-(4-methanesulfonyl-piperazin-1-yl)-2-methyl-butyramide] | 397 |
| CC(CCN1CCN(S(C)(=O)=O)CC1)(C(=O)N[C@@H](CO)c1ccc(Cl)cc1)c1ccc(Cl)c(Cl)c1 (stereo partly drawn) [Example 130, N-[(R)-1-(4-Chloro-phenyl)-2-hydroxy-ethyl]-2-(3,4-dichloro-phenyl)-4-(4-methanesulfonyl-piperazin-1-yl)-2-methyl-butyramide] | 39.9 |

Continued, values first:

| Ki [nM] | Compound |
| --- | --- |
| 48.1 | C[C@@H]1CN(CCC(C)(C(=O)NCc2cc(C(F)(F)F)cc(C(F)(F)F)c2)c2ccc(Cl)c(Cl)c2)CCN1S(C)(=O)=O (stereo partly drawn) [Example 34, N-(3,5-Bis-trifluoromethyl-benzyl)-2-(3,4-dichloro-phenyl)-4-((R)-4-methanesulfonyl-3-methyl-piperazin-1-yl)-2-methyl-butyramide] |
| 29.9 | CN(Cc1ccc(Cl)cc1)C(=O)C(C)(CCN1CCCN(S(C)(=O)=O)CC1)c1ccc(Cl)c(Cl)c1 (stereo not drawn) [Example 97, N-(4-Chloro-benzyl)-2-(3,4-dichloro-phenyl)-4-(4-methanesulfonyl-[1,4]diazepan-1-yl)-2,N-dimethyl-butyramide] |
| 41.8 | CN(Cc1cccc(Cl)c1)C(=O)C(C)(CCN1CCCN(S(C)(=O)=O)CC1)c1ccc(Cl)c(Cl)c1 (stereo not drawn) [Example 103, N-(3-Chloro-benzyl)-2-(3,4-dichloro-phenyl)-4-(4-methanesulfonyl-[1,4]diazepan-1-yl)-2,N-dimethyl-butyramide] |
| 49.6 | CC(CCN1CCCN(S(C)(=O)=O)CC1)(C(=O)NCc1ccc(C(F)(F)F)cc1)c1ccc(Cl)c(Cl)c1 (stereo not drawn) [Example 117, 2-(3,4-Dichloro-phenyl)-4-(4-methanesulfonyl-[1,4]diazepan-1-yl)-2-methyl-N-(4-trifluoromethyl-benzyl)-butyramide] |
| 33.3 | C[C@@H]1CN(CCC(C)(C(=O)NCc2ccc(C(F)(F)F)cc2)c2ccc(Cl)c(Cl)c2)CCN1S(C)(=O)=O (stereo partly drawn) [Example 45, 2-(3,4-Dichloro-phenyl)-4-((R)-4-methanesulfonyl-3-methyl-piperazin-1-yl)-2-methyl-N-(4-trifluoromethyl-benzyl)-butyramide] |
| 130 | C[C@@H]1CN(CCC(C)(C(=O)N(C)Cc2cccc(F)c2)c2ccc(Cl)c(Cl)c2)CCN1S(C)(=O)=O (stereo partly drawn) [Example 60, 2-(3,4-Dichloro-phenyl)-N-(3-fluoro-benzyl)-4-((R)-4-methanesulfonyl-3-methyl-piperazin-1-yl)-2,N-dimethyl-butyramide] |
| 275 | CN(Cc1ccc(C(F)(F)F)nc1)C(=O)C(C)(CCN1CCCN(S(C)(=O)=O)CC1)c1ccc(Cl)c(Cl)c1 (stereo not drawn) [Example 125, 2-(3,4-Dichloro-phenyl)-4-(4-methanesulfonyl-[1,4]diazepan-1-yl)-2,N-dimethyl-N-(6-trifluoromethyl-pyridin-3-ylmethyl)-butyramide] |
| 123 | CC(CCN1CCCN(S(C)(=O)=O)CC1)(C(=O)NCc1cccc(OC(F)(F)F)c1)c1ccc(Cl)c(Cl)c1 (stereo not drawn) [Example 102, 2-(3,4-Dichloro-phenyl)-4-(4-methanesulfonyl-[1,4]diazepan-1-yl)-2-methyl-N-(3-trifluoromethoxy-benzyl)-butyramide] |
| 315 | CN(Cc1ccc(-c2ccncc2)cc1)C(=O)C(CCN1CCN(S(C)(=O)=O)CC1)c1ccc(Cl)c(Cl)c1 (stereo not drawn) [Example 2, 2-(3,4-Dichloro-phenyl)-4-(4-methanesulfonyl-piperazin-1-yl)-N-methyl-N-(4-pyridin-4-yl-benzyl)-butyramide] |
| 12.5 | C[C@H]1CN(CCC(C)(C(=O)N(C)Cc2ccc(Cl)c(Cl)c2)c2ccc(Cl)c(Cl)c2)CCN1S(C)(=O)=O (stereo partly drawn) [Example 71, N-(3,4-Dichloro-benzyl)-2-(3,4-dichloro-phenyl)-4-((S)-4-methanesulfonyl-3-methyl-piperazin-1-yl)-2,N-dimethyl-butyramide] |
| 93.4 | CN(Cc1ccc(-c2ccncc2)cc1)C(=O)C(C)(CCN1CCCN(S(C)(=O)=O)CC1)c1ccc(Cl)c(Cl)c1 (stereo not drawn) [Example 123, 2-(3,4-Dichloro-phenyl)-4-(4-methanesulfonyl-[1,4]diazepan-1-yl)-2,N-dimethyl-N-(4-pyridin-4-yl-benzyl)-butyramide] |
